In article PMC10609608, “Design, Synthesis, In Vitro Biological Evaluation and In Silico Molecular Docking Study of Benzimidazole-Based Oxazole Analogues: A Promising Acetylcholinesterase and Butyrylcholinesterase Inhibitors” (Molecules, 2023):

Assays:
[1] = target: acetylcholinesterase (AChE) (Homo sapiens, UniProt P22303); experiment: biochemical; conditions: in vitro; donepezil as standard; read-out: AChE IC50 ± SEM
Method: (§1) According to previously established protocols, in vitro AChE and BuChE inhibition profiles were evaluated with slight modifications.

[2] = target: butyrylcholinesterase (BuChE) (Homo sapiens, UniProt P06276); experiment: biochemical; conditions: in vitro; donepezil as standard; read-out: BuChE IC50 ± SEM
Sequence of butyrylcholinesterase (BuChE) (P06276 29-602): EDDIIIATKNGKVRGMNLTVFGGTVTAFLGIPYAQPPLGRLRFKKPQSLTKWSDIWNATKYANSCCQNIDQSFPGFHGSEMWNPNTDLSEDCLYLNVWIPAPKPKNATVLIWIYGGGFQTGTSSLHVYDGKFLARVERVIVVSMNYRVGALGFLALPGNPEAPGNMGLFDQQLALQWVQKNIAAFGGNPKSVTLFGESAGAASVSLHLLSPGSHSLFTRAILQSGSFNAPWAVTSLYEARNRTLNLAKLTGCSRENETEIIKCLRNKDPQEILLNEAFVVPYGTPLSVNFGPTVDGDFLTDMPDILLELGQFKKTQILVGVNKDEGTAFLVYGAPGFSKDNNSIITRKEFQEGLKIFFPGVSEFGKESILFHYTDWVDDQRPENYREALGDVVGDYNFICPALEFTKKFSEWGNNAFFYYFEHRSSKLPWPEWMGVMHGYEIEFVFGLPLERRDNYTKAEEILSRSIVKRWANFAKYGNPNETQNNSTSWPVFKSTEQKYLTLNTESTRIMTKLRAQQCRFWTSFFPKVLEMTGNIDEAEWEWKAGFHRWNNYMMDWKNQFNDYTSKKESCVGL
Method: as §1

Sequence of acetylcholinesterase (AChE) (P22303 32-614): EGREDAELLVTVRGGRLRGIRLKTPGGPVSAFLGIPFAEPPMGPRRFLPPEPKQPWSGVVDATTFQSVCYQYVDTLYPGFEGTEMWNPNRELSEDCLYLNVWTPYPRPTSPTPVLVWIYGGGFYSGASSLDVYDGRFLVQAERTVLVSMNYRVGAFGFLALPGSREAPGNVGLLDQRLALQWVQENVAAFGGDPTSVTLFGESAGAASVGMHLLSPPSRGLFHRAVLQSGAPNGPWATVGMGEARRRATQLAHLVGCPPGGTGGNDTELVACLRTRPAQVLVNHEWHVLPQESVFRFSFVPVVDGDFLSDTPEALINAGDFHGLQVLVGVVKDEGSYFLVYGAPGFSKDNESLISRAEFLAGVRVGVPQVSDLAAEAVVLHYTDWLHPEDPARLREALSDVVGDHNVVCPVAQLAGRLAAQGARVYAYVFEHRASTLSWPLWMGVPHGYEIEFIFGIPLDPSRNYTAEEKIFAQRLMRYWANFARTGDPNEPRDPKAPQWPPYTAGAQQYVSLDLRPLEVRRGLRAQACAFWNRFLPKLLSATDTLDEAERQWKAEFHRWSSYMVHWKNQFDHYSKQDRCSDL

SMILES: COc1ccc(/C(CSc2nc3ccccc3[nH]2)=N\Nc2nc(-c3ccccc3[N+](=O)[O-])co2)cc1 [Compound 1, (E)-2-(2-(2-((1H-Benzo[d]imidazol-2-yl)thio)-1-(4-methoxyphenyl)ethylidene)hydrazinyl)-4-(2-nitrophenyl)oxazole]
- IC50 [1]: 1.1 ± 0.1 µM
- IC50 [2]: 1.8 ± 0.1 µM

SMILES: Cc1ccc(/C(CSc2nc3ccccc3[nH]2)=N\Nc2nc(-c3ccccc3[N+](=O)[O-])co2)cc1 [Compound 2, (E)-2-(2-(2-((1H-Benzo[d]imidazol-2-yl)thio)-1-(p-tolyl)ethylidene)hydrazinyl)-4-(2-nitrophenyl)oxazole]
- IC50 [1]: 1.6 ± 0.01 µM
- IC50 [2]: 1.9 ± 0.1 µM

SMILES: Cc1ccc(/C(CSc2nc3ccccc3[nH]2)=N\Nc2nc(-c3cccc([N+](=O)[O-])c3)co2)cc1 [Compound 3, (E)-2-(2-(2-((1H-Benzo[d]imidazol-2-yl)thio)-1-(p-tolyl)ethylidene)hydrazinyl)-4-(3-nitrophenyl)oxazole]
- IC50 [1]: 4.4 ± 0.1 µM
- IC50 [2]: 5.8 ± 0.1 µM

SMILES: Cc1ccc(/C(CSc2nc3ccccc3[nH]2)=N\Nc2nc(-c3ccc(C)cc3)co2)cc1 [Compound 4, (E)-2-(2-(2-((1H-Benzo[d]imidazol-2-yl)thio)-1-(p-tolyl)ethylidene)hydrazinyl)-4-(p-tolyl)oxazole]
- IC50 [1]: 6.5 ± 0.2 µM
- IC50 [2]: 8.3 ± 0.2 µM

SMILES: COc1cccc(-c2coc(N/N=C(/CSc3nc4ccccc4[nH]3)c3ccc(C)cc3)n2)c1 [Compound 5, (E)-2-(2-(2-((1H-Benzo[d]imidazol-2-yl)thio)-1-(p-tolyl)ethylidene)hydrazinyl)-4-(3-methoxyphenyl)oxazole]
- IC50 [1]: 9.8 ± 0.2 µM
- IC50 [2]: 11.5 ± 0.2 µM

SMILES: Cc1ccc(/C(CSc2nc3ccccc3[nH]2)=N\Nc2nc(-c3ccc(Cl)c(Cl)c3)co2)cc1 [Compound 6, (E)-2-(2-(2-((1H-Benzo[d]imidazol-2-yl)thio)-1-(p-tolyl)ethylidene)hydrazinyl)-4-(3,4-dichlorophenyl)oxazole]
- IC50 [1]: 0.4 ± 0.05 µM
- IC50 [2]: 1.1 ± 0.05 µM

SMILES: CN(C)c1ccc(/C(CSc2nc3ccccc3[nH]2)=N\Nc2nc(-c3ccc(Br)cc3)co2)cc1 [Compound 7, (E)-4-(2-((1H-Benzo[d]imidazol-2-yl)thio)-1-(2-(4-(4-bromophenyl)oxazol-2-yl)hydrazono)ethyl)-N,N-dimethylaniline]
- IC50 [1]: 12.6 ± 0.3 µM
- IC50 [2]: 16.3 ± 0.3 µM

SMILES: COc1ccccc1-c1coc(N/N=C(/CSc2nc3ccccc3[nH]2)c2ccc(C)cc2)n1 [Compound 8, (E)-2-(2-(2-((1H-Benzo[d]imidazol-2-yl)thio)-1-(p-tolyl)ethylidene)hydrazinyl)-4-(2-methoxyphenyl)oxazole]
- IC50 [1]: 5.3 ± 0.2 µM
- IC50 [2]: 7.2 ± 0.1 µM

SMILES: O=[N+]([O-])c1cccc(-c2coc(N/N=C(/CSc3nc4ccccc4[nH]3)c3ccccc3)n2)c1 [Compound 10, (E)-2-(2-(2-((1H-Benzo[d]imidazol-2-yl)thio)-1-phenylethylidene)hydrazinyl)-4-(3-nitrophenyl)oxazole]
- IC50 [1]: 1.4 ± 0.1 µM
- IC50 [2]: 2.1 ± 0.1 µM

SMILES: O=[N+]([O-])c1cccc(-c2coc(N/N=C(/CSc3nc4ccccc4[nH]3)c3ccc(Cl)cc3)n2)c1 [Compound 11, (E)-2-(2-(2-((1H-Benzo[d]imidazol-2-yl)thio)-1-(4-chlorophenyl)ethylidene)hydrazi-nyl)-4-(3-nitrophenyl)oxazole]
- IC50 [1]: 0.7 ± 0.05 µM
- IC50 [2]: 1.2 ± 0.01 µM

SMILES: Cc1ccc(/C(CSc2nc3ccccc3[nH]2)=N\Nc2nc(-c3ccccc3)co2)cc1 [Compound 13, (E)-2-(2-(2-((1H-Benzo[d]imidazol-2-yl)thio)-1-(p-tolyl)ethylidene)hydrazinyl)-4-phenyloxazole]
- IC50 [1]: 8.1 ± 0.1 µM
- IC50 [2]: 9.7 ± 0.1 µM

SMILES: Cc1ccc(/C(CSc2nc3ccccc3[nH]2)=N\Nc2nc(-c3ccc(Cl)cc3Cl)co2)cc1 [Compound 14, (E)-2-(2-(2-((1H-Benzo[d]imidazol-2-yl)thio)-1-(p-tolyl)ethylidene)hydrazinyl)-4-(2,4-dichlorophenyl)oxazole]
- IC50 [1]: 0.2 ± 0.05 µM
- IC50 [2]: 0.3 ± 0.05 µM

SMILES: COc1cccc(-c2coc(N/N=C(/CSc3nc4ccccc4[nH]3)c3ccccc3)n2)c1 [Compound 15, (E)-2-(2-(2-((1H-Benzo[d]imidazol-2-yl)thio)-1-phenylethylidene)hydrazinyl)-4-(3-methoxyphenyl)oxazole]
- IC50 [1]: 5.4 ± 0.1 µM
- IC50 [2]: 7.2 ± 0.1 µM

SMILES: Cc1ccc(-c2coc(N/N=C(/CSc3nc4ccccc4[nH]3)c3ccc(-c4ccccc4)cc3)n2)cc1 [Compound 16, (E)-2-(2-(2-((1H-Benzo[d]imidazol-2-yl)thio)-1-([1,1′-biphenyl]-4-yl)ethylidene) Hydrazinyl)-4-(p-tolyl)oxazole]
- IC50 [1]: 6.1 ± 0.1 µM
- IC50 [2]: 9.3 ± 0.1 µM

SMILES: O=[N+]([O-])c1ccccc1-c1coc(N/N=C(/CSc2nc3ccccc3[nH]2)c2ccccc2)n1 [Compound 17, (E)-2-(2-(2-((1H-Benzo[d]imidazol-2-yl)thio)-1-phenylethylidene)hydrazinyl)-4-(2-nitrophenyl)oxazole]
- IC50 [1]: 2.5 ± 0.1 µM
- IC50 [2]: 3.5 ± 0.1 µM

SMILES: O=[N+]([O-])c1ccccc1-c1coc(N/N=C(/CSc2nc3ccccc3[nH]2)c2ccc(Cl)cc2)n1 [Compound 18, (E)-2-(2-(2-((1H-Benzo[d]imidazol-2-yl)thio)-1-(4-chlorophenyl)ethylidene)hydrazinyl)-4-(2-nitrophenyl)oxazole]
- IC50 [1]: 0.8 ± 0.1 µM
- IC50 [2]: 1.7 ± 0.1 µM

SMILES: COc1cccc(-c2coc(N/N=C(/CSc3nc4ccccc4[nH]3)c3ccc(Cl)cc3)n2)c1 [Compound 19, (E)-2-(2-(2-((1H-Benzo[d]imidazol-2-yl)thio)-1-(4-chlorophenyl)ethylidene)hydrazinyl)-4-(3-methoxyphenyl)oxazole]
- IC50 [1]: 2.7 ± 0.2 µM
- IC50 [2]: 3.7 ± 0.1 µM
